By Kd is commonly meant the concentration at which binding is half-saturated. A lower Kd goes with tighter binding.

These results are taken from publication PMC13464545, “Mouse Norovirus Uses Host Metabolites to Enhance Receptor Binding and Evade Immune Recognition” (Medical research archives, 2022).

The target of this assay is T1, MNV P domain (Murine norovirus 1, UniProt Q80J94).
T1 construct: gene ORF2; C-terminal protruding (P) domain of VP1, expressed as soluble form without the shell domain; dimerizes
T1 sequence (Q80J94 229-541): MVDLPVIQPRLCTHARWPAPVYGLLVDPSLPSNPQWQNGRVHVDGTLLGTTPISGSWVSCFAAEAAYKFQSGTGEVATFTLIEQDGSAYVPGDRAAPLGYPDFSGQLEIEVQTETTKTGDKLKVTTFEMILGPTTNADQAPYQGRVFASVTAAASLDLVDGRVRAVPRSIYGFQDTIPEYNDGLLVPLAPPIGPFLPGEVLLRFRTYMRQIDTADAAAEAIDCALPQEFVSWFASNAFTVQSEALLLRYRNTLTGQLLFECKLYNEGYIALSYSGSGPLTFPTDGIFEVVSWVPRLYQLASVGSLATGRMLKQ
Nature of the assay: isothermal titration calorimetry. The class given is binding.

The structures appear in SMILES notation.

With `C[C@H](CCC(=O)NCC(=O)O)[C@H]1CC[C@H]2[C@@H]3[C@H](O)C[C@@H]4C[C@H](O)CC[C@]4(C)[C@H]3CC[C@]12C` [GCDCA], the Kd is around 13 µM.
